In PubChem BioAssay AID330 (DTP/NCI, 2004) one finds T/C data, which are given here for 26 compounds.

Several values for one entry are separate records, joined by “and”; a condition that tells them apart may be missing. Identical values can stand only once. Toxic doses and inconclusive results are not listed.

The test concerns P388 leukemia ip, CD2F1 mice, survival T/C. The experiment in a line: NCI In Vivo Anticancer Drug Screen. Data for tumor model P388 Leukemia (intraperitoneal) in CD2F1 (CDF1) mice. Particulars: endpoint: median survival time, higher = longer survival. The gist of the method:
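Mice carrying the transplanted tumor received test compound or vehicle. Survival was recorded in each group, and the value is the treated-group measurement divided by that of the vehicle-treated control group.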

Setting [1] is: dose: 6.25 mg/kg/injection, schedule: Q01DX005 (ip), vehicle: saline.
[2] abbreviates: dose: 50.0 mg/kg/injection, schedule: Q01DX005 (ip), vehicle: saline.
Where [3] appears, read: dose: 100.0 mg/kg/injection, schedule: Q04DX002 (ip), vehicle: saline.
Where [4] appears, read: dose: 200.0 mg/kg/injection, schedule: Q04DX002 (ip), vehicle: saline.
Where [5] appears, read: dose: 50.0 mg/kg/injection, schedule: Q01DX009 (ip), vehicle: saline.
Setting [6] is: dose: 100.0 mg/kg/injection, schedule: Q01DX009 (ip), vehicle: saline.
Setting [7] is: dose: 200.0 mg/kg/injection, schedule: Q01DX009 (ip), vehicle: saline.
[8] abbreviates: dose: 50.0 mg/kg/injection, schedule: Q01DX009 (ip), vehicle: Klucel (hydroxypropylcellulose) (HPC).
Setting [9] is: dose: 100.0 mg/kg/injection, schedule: Q01DX009 (ip), vehicle: Klucel (hydroxypropylcellulose) (HPC).
Where [10] appears, read: dose: 200.0 mg/kg/injection, schedule: Q01DX009 (ip), vehicle: Klucel (hydroxypropylcellulose) (HPC).
Where [11] appears, read: dose: 100.0 mg/kg/injection, schedule: Q04DX003 (ip), vehicle: saline with Tween-80.
Setting [12] is: dose: 200.0 mg/kg/injection, schedule: Q04DX003 (ip), vehicle: saline with Tween-80.
Where [13] appears, read: dose: 400.0 mg/kg/injection, schedule: Q04DX003 (ip), vehicle: saline with Tween-80.
The mark [14] stands for this setting: dose: 50.0 mg/kg/injection, schedule: Q01DX005 (ip), vehicle: Klucel (hydroxypropylcellulose) (HPC).
Where [15] appears, read: dose: 100.0 mg/kg/injection, schedule: Q01DX005 (ip), vehicle: Klucel (hydroxypropylcellulose) (HPC).
The mark [16] stands for this setting: dose: 200.0 mg/kg/injection, schedule: Q01DX005 (ip), vehicle: Klucel (hydroxypropylcellulose) (HPC).
Setting [17] is: dose: 6.25 mg/kg/injection, schedule: Q01DX005 (ip), vehicle: Klucel (hydroxypropylcellulose) (HPC).
[18] abbreviates: dose: 12.5 mg/kg/injection, schedule: Q01DX005 (ip), vehicle: Klucel (hydroxypropylcellulose) (HPC).
[19] abbreviates: dose: 25.0 mg/kg/injection, schedule: Q01DX005 (ip), vehicle: Klucel (hydroxypropylcellulose) (HPC).

In the case of `OC[C@H]1N[C@H](CO)[C@@H](O)[C@H]1O`, the T/C by setting is: (dose: 60.0 mg/kg/injection, schedule: Q01DX005 (ip), vehicle: saline) 100 % of control; (dose: 120.0 mg/kg/injection, schedule: Q01DX005 (ip), vehicle: saline) 99 % of control; (dose: 240.0 mg/kg/injection, schedule: Q01DX005 (ip), vehicle: saline) 103 % of control.
For the compound `CCN(CC)CCCCCCNc1cc(OC)c(Cl)c2cccnc12`, the T/C is 102 % of control under setting [1]; 95 % of control (dose: 12.5 mg/kg/injection, schedule: Q01DX005 (ip), vehicle: saline); 98 % of control (dose: 25.0 mg/kg/injection, schedule: Q01DX005 (ip), vehicle: saline); 115 % of control under setting [2].
`COCC1CCCN1` (stereo not drawn): the T/C runs as follows: under setting [3], 104 % of control; under setting [4], 110 % of control.
`Oc1ccc(C2N=CNc3nc[nH]c32)c(O)c1` (stereo not drawn): the T/C under setting [5] is 105 % of control, the T/C under setting [6] is 102 % of control and the T/C under setting [7] is 100 % of control.
As for `O=C1NCC(N2C(=O)CC3(CCCC3)C2=O)O1` (stereo not drawn), the T/C runs as follows: under setting [8], 100 % of control; under setting [9], 94 % of control; under setting [10], 91 % of control.
Regarding `O=C1NCN(c2ccccc2)C12CCNCC2`, the T/C (dose: 25.0 mg/kg/injection, schedule: Q04DX003 (ip), vehicle: saline sonified) was 109 % of control; the T/C (dose: 50.0 mg/kg/injection, schedule: Q04DX003 (ip), vehicle: saline sonified) is 109 % of control; the T/C (dose: 100.0 mg/kg/injection, schedule: Q04DX003 (ip), vehicle: saline sonified) is 95 % of control.
Consider `CC1=CC(C)(C)Nc2ccc(Cc3ccc4c(c3)C(C)=CC(C)(C)N4)cc21`, for which the T/C is 101 % of control (dose: 60.0 mg/kg/injection, schedule: Q01DX005 (ip), vehicle: saline with Tween-80); 94 % of control (dose: 120.0 mg/kg/injection, schedule: Q01DX005 (ip), vehicle: saline with Tween-80); 95 % of control (dose: 240.0 mg/kg/injection, schedule: Q01DX005 (ip), vehicle: saline with Tween-80).
On to `CCCOC(=O)c1ccc(NC(=O)Nc2ccc(C(=O)OCC)cc2)cc1`, for which the T/C is 87 % of control (dose: 60.0 mg/kg/injection, schedule: Q01DX005 (ip), vehicle: Klucel (hydroxypropylcellulose) (HPC)); 90 % of control (dose: 120.0 mg/kg/injection, schedule: Q01DX005 (ip), vehicle: Klucel (hydroxypropylcellulose) (HPC)); 88 % of control (dose: 240.0 mg/kg/injection, schedule: Q01DX005 (ip), vehicle: Klucel (hydroxypropylcellulose) (HPC)).
Regarding `O=C1OC(=O)C2C1C1(c3ccccc3)OC2(c2ccccc2)c2ccccc21` (stereo not drawn), the T/C is, setting by setting: under setting [11], 110 % of control; under setting [12], 109 % of control; under setting [13], 118 % of control.
Regarding `O=c1nc2n(CC(O)C(O)C(O)C(O)CO)c3ccc(Cl)cc3nc-2c(=O)[nH]1` (stereo not drawn), the T/C runs as follows: under setting [2], 104 % of control; (dose: 100.0 mg/kg/injection, schedule: Q01DX005 (ip), vehicle: saline) 104 % of control; (dose: 200.0 mg/kg/injection, schedule: Q01DX005 (ip), vehicle: saline) 104 % of control.
In the case of `O=C(Cc1ccc(C2=NCCN2)cc1[N+](=O)[O-])c1ccc(C2=NCCN2)cc1`, the T/C is, setting by setting: (dose: 0.39 mg/kg/injection, schedule: Q01DX005 (ip), vehicle: saline) 97 % of control; (dose: 0.79 mg/kg/injection, schedule: Q01DX005 (ip), vehicle: saline) 101 % of control; (dose: 1.56 mg/kg/injection, schedule: Q01DX005 (ip), vehicle: saline) 101 % of control and 87 % of control; under setting [1], 106 % of control and 87 % of control.
For the compound `O=C(Nc1cccc2c1C(=O)c1ccc(Nc3cc(NC(=O)c4ccccc4)c4c(c3)C(=O)c3ccccc3C4=O)cc1C2=O)c1ccccc1`, the T/C runs as follows: under setting [11], 100 % of control; under setting [12], 100 % of control; under setting [13], 109 % of control.
As to `O=C(C=C(C(F)(F)F)C(F)(F)F)c1ccccc1[N+](=O)[O-]`, the T/C is, setting by setting: (dose: 1.32 mg/kg/injection, schedule: Q04DX003 (ip), vehicle: other) 109 % of control; (dose: 2.0 mg/kg/injection, schedule: Q04DX003 (ip), vehicle: other) 100 % of control; (dose: 3.0 mg/kg/injection, schedule: Q04DX003 (ip), vehicle: other) 109 % of control; (dose: 4.5 mg/kg/injection, schedule: Q04DX003 (ip), vehicle: other) 104 % of control; (dose: 6.25 mg/kg/injection, schedule: Q04DX003 (ip), vehicle: other) 109 % of control; (dose: 25.0 mg/kg/injection, schedule: Q04DX003 (ip), vehicle: other) 86 % of control.
On to `CC(C)C(NC(=O)OCc1ccccc1)C(=O)N(C(=O)NC1CCCCC1)C1CCCCC1` (stereo not drawn), for which the T/C is 100 % of control under setting [14], 95 % of control under setting [15] and 98 % of control under setting [16].
As for `c1ccc(C2C(c3nc4ccccc4o3)C(c3ccccc3)C2c2nc3ccccc3o2)cc1` (stereo not drawn), the T/C is, setting by setting: under setting [14], 91 % of control; under setting [15], 89 % of control; under setting [16], 86 % of control.
`Cn1/c(=N\N)sc2ccc(S(=O)(=O)O)cc21`: the T/C reads like this: under setting [8], 97 % of control; under setting [9], 103 % of control; under setting [10], 105 % of control.
As to `COCCC1CN(C(C)C)C(=O)C1(c1ccccc1)c1ccccc1` (stereo not drawn), the T/C was 106 % of control under setting [8], 92 % of control under setting [9] and 108 % of control under setting [10].
In the case of `O=S1(=O)CC2(N3CCOCC3)CCCCC21` (stereo not drawn), the T/C by setting is: under setting [11], 95 % of control; under setting [12], 100 % of control; under setting [13], 95 % of control.
As to `S=c1[nH]ccn1-c1c(Cl)cccc1Cl`, the T/C runs as follows: under setting [8], 99 % of control; under setting [9], 100 % of control.
Turning to `O=C(O)/C(Cl)=C(/Cl)C(=O)C(Cl)(Cl)Cl`, the T/C is, setting by setting: (dose: 3.13 mg/kg/injection, schedule: Q01DX009 (ip), vehicle: distilled water + Tween-80) 108 % of control; (dose: 25.0 mg/kg/injection, schedule: Q01DX009 (ip), vehicle: distilled water + Tween-80) 155 % of control; (dose: 50.0 mg/kg/injection, schedule: Q01DX009 (ip), vehicle: distilled water + Tween-80) 155 % of control.
In the case of `Cc1c(-c2ccc(C3CCCCC3)cc2)nc2ccc(F)cc2c1C(=O)O`, the T/C by setting is: (dose: 3.12 mg/kg/injection, schedule: Q01DX005 (ip), vehicle: Klucel (hydroxypropylcellulose) (HPC)) 104 % of control; under setting [17], 99 % of control; under setting [18], 110 % of control; under setting [19], 99 % of control.
Turning to `CN(C=O)c1ccc(Cl)cc1`, the T/C is 100 % of control under setting [3]; 97 % of control under setting [4]; 100 % of control (dose: 400.0 mg/kg/injection, schedule: Q04DX002 (ip), vehicle: saline).
For the compound `O=C(N/N=C/c1cccnc1)C(=O)Nc1cccc(C(F)(F)F)c1`, the T/C reads like this: under setting [17], 95 % of control; under setting [18], 89 % of control; under setting [19], 87 % of control.
As to `COc1c2occc2c(N=Cc2ccccn2)c2ccc(=O)oc12`, the T/C was 97 % of control under setting [17], 97 % of control under setting [18], 95 % of control under setting [19] and 90 % of control under setting [14].
As for `Nc1nc(N)nc(NCCSSCCNc2nc(N)nc(N)n2)n1`, the T/C was 97 % of control (dose: 12.5 mg/kg/injection, schedule: Q01DX009 (ip), vehicle: other); 102 % of control (dose: 25.0 mg/kg/injection, schedule: Q01DX009 (ip), vehicle: other); 104 % of control and 86 % of control (dose: 50.0 mg/kg/injection, schedule: Q01DX009 (ip), vehicle: other).
Take `CN1C(=O)Cn2c(nn(CCN3CCOCC3)c(=O)c2=O)-c2cc(Cl)ccc21`: the T/C is 99 % of control under setting [5], 102 % of control under setting [6] and 105 % of control under setting [7].
